From EP1247803A2, “Indolinone compounds suitable for modulation of protein kinases” (Sugen, Inc., priority 1996, dated 1998)

Key:
FLK-1 receptor = biological target: T1, FLK-1 receptor (Mus musculus, UniProt P35918); assay: FLK-1 ELISA (kinase activity of the FLK-1 receptor in FLK-1/NIH3T3 cells, VEGF stimulated); format: cell-based; design: concentration or dose not given beside the values
T1 construct: expressed in transfected cells; host or cells: NIH3T3 C7#3
Method in brief: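 FLK-1-expressing NIH3T3 C7#3 cells, starved overnight in 0.1% FBS medium, were treated with compounds at a 1:200 final dilution (0.5% DMSO) for 2 h at 37 °C, with VEGF stimulation. FLK-1 kinase activity was read by ELISA on anti-rabbit IgG plates using affinity-purified anti-FLK-1 antiserum.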

PDGF-R = PDGF-R (Homo sapiens, UniProt P09619); assay: PDGF-R ELISA; format: cell-based
PDGF-R, sequence (P09619 33-1106, species assumed): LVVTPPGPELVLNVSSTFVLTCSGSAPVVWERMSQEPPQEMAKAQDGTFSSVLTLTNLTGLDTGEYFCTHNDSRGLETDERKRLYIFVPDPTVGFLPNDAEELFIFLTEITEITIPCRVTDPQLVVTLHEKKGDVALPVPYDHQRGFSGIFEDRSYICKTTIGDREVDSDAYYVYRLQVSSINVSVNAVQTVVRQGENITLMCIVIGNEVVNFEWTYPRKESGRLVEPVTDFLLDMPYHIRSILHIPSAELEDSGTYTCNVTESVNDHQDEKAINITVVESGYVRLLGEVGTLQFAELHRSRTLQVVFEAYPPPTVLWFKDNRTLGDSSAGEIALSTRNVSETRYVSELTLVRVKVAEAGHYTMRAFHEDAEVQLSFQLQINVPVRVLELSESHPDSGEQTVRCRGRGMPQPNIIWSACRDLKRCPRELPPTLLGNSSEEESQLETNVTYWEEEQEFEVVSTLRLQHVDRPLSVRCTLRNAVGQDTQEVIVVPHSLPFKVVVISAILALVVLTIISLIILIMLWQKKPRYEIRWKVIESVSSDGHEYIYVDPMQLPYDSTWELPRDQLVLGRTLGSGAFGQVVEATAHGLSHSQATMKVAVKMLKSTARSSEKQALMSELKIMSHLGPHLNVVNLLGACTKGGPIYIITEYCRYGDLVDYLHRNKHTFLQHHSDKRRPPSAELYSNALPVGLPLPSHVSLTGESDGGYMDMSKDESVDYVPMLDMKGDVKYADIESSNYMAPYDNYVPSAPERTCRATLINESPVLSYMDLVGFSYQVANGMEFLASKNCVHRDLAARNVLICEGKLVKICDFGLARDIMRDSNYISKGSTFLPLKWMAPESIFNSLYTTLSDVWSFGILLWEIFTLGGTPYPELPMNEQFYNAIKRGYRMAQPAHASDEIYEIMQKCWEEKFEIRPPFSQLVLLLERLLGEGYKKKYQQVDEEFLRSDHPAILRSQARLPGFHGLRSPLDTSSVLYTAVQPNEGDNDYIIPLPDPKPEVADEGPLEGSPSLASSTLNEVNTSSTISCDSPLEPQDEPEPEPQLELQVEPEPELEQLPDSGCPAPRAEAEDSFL
Description: A PDGF-R ELISA is described in International Patent Publication No. WO 96/40116, published December 19, 1996 by Tang et al.

T1 sequence (P35918 20-1345): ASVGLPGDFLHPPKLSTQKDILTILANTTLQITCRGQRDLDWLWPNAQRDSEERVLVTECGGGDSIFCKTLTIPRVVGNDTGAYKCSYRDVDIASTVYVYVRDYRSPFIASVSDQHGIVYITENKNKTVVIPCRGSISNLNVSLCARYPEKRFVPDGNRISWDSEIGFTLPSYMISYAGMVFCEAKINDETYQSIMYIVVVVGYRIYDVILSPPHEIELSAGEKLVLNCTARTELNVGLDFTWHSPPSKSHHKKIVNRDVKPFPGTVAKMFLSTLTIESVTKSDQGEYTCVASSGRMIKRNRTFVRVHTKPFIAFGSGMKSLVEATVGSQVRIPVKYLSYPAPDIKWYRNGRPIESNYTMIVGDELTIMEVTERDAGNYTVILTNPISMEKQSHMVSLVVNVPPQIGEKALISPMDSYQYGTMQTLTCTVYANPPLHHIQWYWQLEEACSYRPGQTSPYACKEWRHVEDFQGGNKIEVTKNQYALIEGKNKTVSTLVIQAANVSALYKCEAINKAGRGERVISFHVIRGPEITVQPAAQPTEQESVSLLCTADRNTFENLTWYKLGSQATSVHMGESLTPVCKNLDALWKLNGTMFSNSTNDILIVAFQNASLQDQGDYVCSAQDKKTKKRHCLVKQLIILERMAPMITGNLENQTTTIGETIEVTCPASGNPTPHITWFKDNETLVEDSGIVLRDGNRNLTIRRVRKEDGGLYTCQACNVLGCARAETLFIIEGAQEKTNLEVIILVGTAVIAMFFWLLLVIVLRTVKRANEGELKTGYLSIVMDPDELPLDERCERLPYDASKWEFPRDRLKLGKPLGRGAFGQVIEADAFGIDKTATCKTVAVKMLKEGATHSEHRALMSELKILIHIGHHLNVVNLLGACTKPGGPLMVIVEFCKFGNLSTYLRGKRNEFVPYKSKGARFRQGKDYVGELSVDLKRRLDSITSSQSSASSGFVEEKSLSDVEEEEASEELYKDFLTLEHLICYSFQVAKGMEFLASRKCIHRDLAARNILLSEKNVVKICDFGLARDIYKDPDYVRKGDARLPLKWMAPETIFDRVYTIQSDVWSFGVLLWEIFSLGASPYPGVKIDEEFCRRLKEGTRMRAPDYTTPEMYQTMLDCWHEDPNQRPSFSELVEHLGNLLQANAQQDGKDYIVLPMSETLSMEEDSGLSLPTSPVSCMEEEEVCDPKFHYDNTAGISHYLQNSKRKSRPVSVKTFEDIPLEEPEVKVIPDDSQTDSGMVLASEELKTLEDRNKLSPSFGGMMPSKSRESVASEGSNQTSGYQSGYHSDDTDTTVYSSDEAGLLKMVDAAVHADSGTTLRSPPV

Cc1cc2occ(C=C3C(=O)Nc4ccc(Br)c(C)c43)c(=O)c2cc1C [10731/C03]
Fik Kinase %Inhibition (FLK-1 receptor): 4.5% | PDGF Kinase %Inhibition (PDGF-R): 11.3%

Cc1cc(C=C2C(=O)Nc3ccc(S(=O)(=O)N4CCOCC4)cc32)oc1C [10730/F11]
Fik Kinase %Inhibition (FLK-1 receptor): -1.3% | PDGF Kinase %Inhibition (PDGF-R): 4.5%

CC(=O)n1cc(C=C2C(=O)Nc3ccc(CCCl)cc32)c2ccccc21 [10730/G05]
Fik Kinase %Inhibition (FLK-1 receptor): 22.3% | PDGF Kinase %Inhibition (PDGF-R): 65.0%

CN1C(=O)C(=C2C(=O)Nc3c(Br)cc(Br)cc32)c2ccccc21 [10731/A10]
Fik Kinase %Inhibition (FLK-1 receptor): -5.3% | PDGF Kinase %Inhibition (PDGF-R): -3.5%

O=C1Nc2ccc(I)cc2C1=Cc1c[nH]c(=O)[nH]c1=O [10731/B08]
Fik Kinase %Inhibition (FLK-1 receptor): 6.2% | PDGF Kinase %Inhibition (PDGF-R): -23.4%

Cc1c(Br)ccc2c1C(=Cc1coc3ccc([N+](=O)[O-])cc3c1=O)C(=O)N2 [10731/C07]
Fik Kinase %Inhibition (FLK-1 receptor): 70.4% | PDGF Kinase %Inhibition (PDGF-R): 31.3%

Cc1c(Br)ccc2c1C(=C1C(=O)N(C)c3ccccc31)C(=O)N2 [10731/C10]
Fik Kinase %Inhibition (FLK-1 receptor): 19.7% | PDGF Kinase %Inhibition (PDGF-R): 6.5%

O=C1Nc2ccc(CCCl)cc2C1=Cc1cc2ccccc2nc1Cl [10730/G08]
Fik Kinase %Inhibition (FLK-1 receptor): 23.3% | PDGF Kinase %Inhibition (PDGF-R): 20.3%

Cc1cc(C=C2C(=O)Nc3ccc(CCCl)cc32)oc1C [10730/G11]
Fik Kinase %Inhibition (FLK-1 receptor): -1.4% | PDGF Kinase %Inhibition (PDGF-R): -0.3%

CCOC(=O)c1cc(C=C2C(=O)Nc3ccc(Br)c(C)c32)oc1C [10718/C06]
Fik Kinase %Inhibition (FLK-1 receptor): 16.8%

COc1ccc2[nH]cc(C=C3C(=O)Nc4ccc(I)cc43)c2c1 [10731/B09]
Fik Kinase %Inhibition (FLK-1 receptor): -0.5% | PDGF Kinase %Inhibition (PDGF-R): 0.3%

CC(C)c1ccc2occ(C=C3C(=O)Nc4c(Br)cc(Br)cc43)c(=O)c2c1 [10731/A05]
Fik Kinase %Inhibition (FLK-1 receptor): -6.5% | PDGF Kinase %Inhibition (PDGF-R): 14.1%

COc1ccc(C=C2C(=O)Nc3ccc(CCCl)cc32)c(OC)c1OC [10730/G02]
Fik Kinase %Inhibition (FLK-1 receptor): 23.3% | PDGF Kinase %Inhibition (PDGF-R): 18.1%

CCn1c2ccccc2c2cc(C=C3C(=O)Nc4ccc(Br)c(C)c43)ccc21 [10731/C02]
Fik Kinase %Inhibition (FLK-1 receptor): 3.1% | PDGF Kinase %Inhibition (PDGF-R): -2.5%

COC(=O)c1[nH]c(C)c(C=C2C(=O)Nc3ccc(Br)c(C)c32)c1C(=O)OC [10718/C07]
Fik Kinase %Inhibition (FLK-1 receptor): 6.3%

COc1ccc2[nH]cc(C=C3C(=O)Nc4c(Br)cc(Br)cc43)c2c1 [10731/A09]
Fik Kinase %Inhibition (FLK-1 receptor): -2.7% | PDGF Kinase %Inhibition (PDGF-R): -14.4%

Cc1ccc2occ(C=C3C(=O)Nc4ccc(I)cc43)c(=O)c2c1 [10731/B06]
Fik Kinase %Inhibition (FLK-1 receptor): 6.2% | PDGF Kinase %Inhibition (PDGF-R): 5.6%

O=C1Nc2ccc(I)cc2C1=Cc1coc2ccc([N+](=O)[O-])cc2c1=O [10731/B07]
Fik Kinase %Inhibition (FLK-1 receptor): 11.7% | PDGF Kinase %Inhibition (PDGF-R): 6.0%

Cc1cc2occ(C=C3C(=O)Nc4c(Br)cc(Br)cc43)c(=O)c2cc1C [10731/A03]
Fik Kinase %Inhibition (FLK-1 receptor): 2.5% | PDGF Kinase %Inhibition (PDGF-R): 7.5%

Cc1ccc2occ(C=C3C(=O)Nc4c(Br)cc(Br)cc43)c(=O)c2c1 [10731/A06]
Fik Kinase %Inhibition (FLK-1 receptor): -5.5% | PDGF Kinase %Inhibition (PDGF-R): 1.3%

Cc1ccc2occ(C=C3C(=O)Nc4ccc(Br)c(C)c43)c(=O)c2c1 [10731/C06]
Fik Kinase %Inhibition (FLK-1 receptor): 13.8% | PDGF Kinase %Inhibition (PDGF-R): 7.0%

COC1CC(C=C2C(=O)Nc3ccc(S(=O)(=O)N4CCOCC4)cc32)C(OC)O1 (centres unmarked) [10730/F10]
Fik Kinase %Inhibition (FLK-1 receptor): 13.4% | PDGF Kinase %Inhibition (PDGF-R): 1.9%

CCn1c2ccccc2c2cc(C=C3C(=O)Nc4ccc(I)cc43)ccc21 [10731/B02]
Fik Kinase %Inhibition (FLK-1 receptor): 6.5% | PDGF Kinase %Inhibition (PDGF-R): 13.2%

O=C1Nc2c(Br)cc(Br)cc2C1=Cc1c[nH]c(=O)[nH]c1=O [10731/A08]
Fik Kinase %Inhibition (FLK-1 receptor): -13.8% | PDGF Kinase %Inhibition (PDGF-R): -2.5%

CCOC(=O)CCc1c(C(=O)OCC)[nH]c(C=C2C(=O)Nc3ccc(Br)c(C)c32)c1CC(=O)OCC [10718/C05]
Fik Kinase %Inhibition (FLK-1 receptor): 20.5%

O=C1Nc2ccc(S(=O)(=O)N3CCOCC3)cc2C1=Cc1coc2c(Br)cc(Br)cc2c1=O [10730/F09]
Fik Kinase %Inhibition (FLK-1 receptor): 14.4% | PDGF Kinase %Inhibition (PDGF-R): 13.3%

CN1C(=O)C(=C2C(=O)Nc3ccc(I)cc32)c2ccccc21 [10731/B10]
Fik Kinase %Inhibition (FLK-1 receptor): 1.3% | PDGF Kinase %Inhibition (PDGF-R): 4.6%

C=C(C)C1CC=C(C=C2C(=O)Nc3ccc(Br)c(C)c32)CC1 (centres unmarked) [10731/C04]
Fik Kinase %Inhibition (FLK-1 receptor): 10.5% | PDGF Kinase %Inhibition (PDGF-R): 15.1%

C=C(C)C1CC=C(C=C2C(=O)Nc3c(Br)cc(Br)cc32)CC1 (centres unmarked) [10731/A04]
Fik Kinase %Inhibition (FLK-1 receptor): 5.0% | PDGF Kinase %Inhibition (PDGF-R): 5.1%

O=C1Nc2c(Br)cc(Br)cc2C1=Cc1coc2ccc([N+](=O)[O-])cc2c1=O [10731/A07]
Fik Kinase %Inhibition (FLK-1 receptor): -4.3% | PDGF Kinase %Inhibition (PDGF-R): 4.6%

CC(C)c1ccc2occ(C=C3C(=O)Nc4ccc(I)cc43)c(=O)c2c1 [10731/B05]
Fik Kinase %Inhibition (FLK-1 receptor): 3.8% | PDGF Kinase %Inhibition (PDGF-R): 17.9%

COC1CC(C=C2C(=O)Nc3ccc(CCCl)cc32)C(OC)O1 (centres unmarked) [10730/G10]
Fik Kinase %Inhibition (FLK-1 receptor): 11.3% | PDGF Kinase %Inhibition (PDGF-R): 22.1%

Cc1c(O)ccc(C=C2C(=O)Nc3ccc(Br)c(C)c32)c1O [10718/C09]
Fik Kinase %Inhibition (FLK-1 receptor): 5.3%

CCn1c2ccccc2c2cc(C=C3C(=O)Nc4ccc(S(=O)(=O)NC)cc43)ccc21 [10731/D02]
Fik Kinase %Inhibition (FLK-1 receptor): -8.4% | PDGF Kinase %Inhibition (PDGF-R): 17.9%

COc1cc(C=C2C(=O)Nc3ccc(CCCl)cc32)cc(OC)c1OC [10730/G04]
Fik Kinase %Inhibition (FLK-1 receptor): 7.4% | PDGF Kinase %Inhibition (PDGF-R): 21.6%

COc1ccc2[nH]cc(C=C3C(=O)Nc4ccc(Br)c(C)c43)c2c1 [10731/C09]
Fik Kinase %Inhibition (FLK-1 receptor): 15.1% | PDGF Kinase %Inhibition (PDGF-R): -6.3%

O=C1Nc2ccc(CCCl)cc2C1=Cc1ccc(-c2ccccc2Cl)o1 [10730/G07]
Fik Kinase %Inhibition (FLK-1 receptor): 8.3% | PDGF Kinase %Inhibition (PDGF-R): 19.9%

Cc1c(Br)ccc2c1C(=Cc1c[nH]c(=O)[nH]c1=O)C(=O)N2 [10731/C08]
Fik Kinase %Inhibition (FLK-1 receptor): 10.2% | PDGF Kinase %Inhibition (PDGF-R): -3.0%

Cc1cc2occ(C=C3C(=O)Nc4ccc(I)cc43)c(=O)c2cc1C [10731/B03]
Fik Kinase %Inhibition (FLK-1 receptor): 1.9% | PDGF Kinase %Inhibition (PDGF-R): 9.9%

Cc1c(Br)ccc2c1C(=Cc1ccc(Cl)c([N+](=O)[O-])c1)C(=O)N2 [10718/C08]
Fik Kinase %Inhibition (FLK-1 receptor): 19.6%

CCn1c2ccccc2c2cc(C=C3C(=O)Nc4c(Br)cc(Br)cc43)ccc21 [10731/A02]
Fik Kinase %Inhibition (FLK-1 receptor): 2.7% | PDGF Kinase %Inhibition (PDGF-R): -3.9%

C=C(C)C1CC=C(C=C2C(=O)Nc3ccc(I)cc32)CC1 (centres unmarked) [10731/B04]
Fik Kinase %Inhibition (FLK-1 receptor): 12.0% | PDGF Kinase %Inhibition (PDGF-R): 0.3%

COc1cc(OC)c(OC)cc1C=C1C(=O)Nc2ccc(CCCl)cc21 [10730/G03]
Fik Kinase %Inhibition (FLK-1 receptor): 15.2% | PDGF Kinase %Inhibition (PDGF-R): 44.0%

CNS(=O)(=O)c1ccc2c(c1)C(=Cc1coc3cc(C)c(C)cc3c1=O)C(=O)N2 [10731/D03]
Fik Kinase %Inhibition (FLK-1 receptor): 17.3% | PDGF Kinase %Inhibition (PDGF-R): 28.4%

Cc1c(Br)ccc2c1C(=Cc1coc3ccc(C(C)C)cc3c1=O)C(=O)N2 [10731/C05]
Fik Kinase %Inhibition (FLK-1 receptor): 14.9% | PDGF Kinase %Inhibition (PDGF-R): 22.7%

O=C1Nc2c(Br)cc(Br)cc2C1=Cc1ccc[nH]1 [10717/A09]
Fik Kinase %Inhibition (FLK-1 receptor): -3.9%
